According to patent US9340511B2, “Process for making isoquinoline compounds” (FIBROGEN, INC., priority 2012, dated 2016):

The molecules below were run on Hep3B cells (assay: Cell-Based EPO Assay). Conditions: 30 μM compound in DMSO compared to DMSO only control, 72 hours, value minus vehicle control.
Set-up: species or system human
Method: Cell-Based EPO Assay Hep3B cells (human hepatocellular carcinoma cells from ATCC, cat # HB-8064) were plated at 25,000 cells per well 96 well plates. The next day, the cells were washed once with DMEM (Cellgro, cat #10-013-CM)+0.5% fetal bovine serum (Cellgro, cat #35-010-CV) and incubated with various concentrations of compound or vehicle control (0.15% DMSO) in DMEM+0.5% fetal bovine serum for 72 hours. Cell free culture supernatants were generated by transfer to a conical bottom 96 well plate and centrifugation for 5 minutes at 2000 rpm. The supernatant was quantitated for EPO using a human EPO ELISA kit (R&D Systems, cat # DEP 00). The EPO values for the compounds reported herein (e.g., Table 1) are the measured value for cells plus compound minus the value for the vehicle control for the same cell preparation. The EPO values for the vehicle control for the cell preparations used in experiments reported herein varied from 0-12.5 mIU/ml.

Going from `COc1ccc(Oc2ccc3c(O)c(C(=O)NCC(=O)O)nc(C)c3c2)cc1` [Compound 5f, 2-[4-hydroxy-1-methyl-7-(4-methoxy-phenoxy)-isoquinoline-3-carboxamido]acetic acid] to `COc1ccc(Oc2ccc3c(C)nc(C(=O)NCC(=O)O)c(O)c3c2)cc1` [Compound 6f, 2-[4-hydroxy-1-methyl-6-(4-methoxy-phenoxy)-isoquinoline-3-carboxamido]acetic acid], the “Cell EPO* (mIU/ml)” value falls from 209 mIU/ml to 191 mIU/ml.

Compared with `Cc1nc(C(=O)NCC(=O)O)c(O)c2cc(Oc3cc(F)cc(F)c3)ccc12` [Compound 8f, 2-[4-hydroxy-1-methyl-6-(3,5-difluoro-phenoxy)-isoquinoline-3-carboxamido]acetic acid], `Cc1nc(C(=O)NCC(=O)O)c(O)c2ccc(Oc3cc(F)cc(F)c3)cc12` [Compound 7f, 2-[4-hydroxy-1-methyl-7-(3,5-difluoro-phenoxy)-isoquinoline-3-carboxamido]acetic acid] is higher in “Cell EPO* (mIU/ml)” value: 105 mIU/ml for the first, 225 mIU/ml for the second.

First: Cc1nc(C(=O)NCC(=O)O)c(O)c2cc(Oc3ccccc3)ccc12 [Compound 2f, 2-(4-hydroxy-1-methyl-6-phenoxyisoquinoline-3-carboxamido)acetic acid]
Second: Cc1nc(C(=O)NCC(=O)O)c(O)c2c(Oc3ccccc3)cccc12 [Compound 1f, 2-(4-hydroxy-1-methyl-5-phenoxyisoquinoline-3-carboxamido)acetic acid]
The “Cell EPO* (mIU/ml)” value of the first is lower: 78 mIU/ml for the first, 98.6 mIU/ml for the second.

`Cc1nc(C(=O)NCC(=O)O)c(O)c2cccc(Oc3ccccc3)c12` [Compound 4f, 2-(4-hydroxy-1-methyl-8-phenoxyisoquinoline-3-carboxamido)acetic acid] was tested, and the “Cell EPO* (mIU/ml)” value was 52 mIU/ml.
